How the values were obtained:
[1] = tested on: caspase-1; experiment: Western blot for caspase-1 (p45 and p10) in J774A.1 cells after LPS/ATP stimulation; type: cell-based, murine
Experimental: J774A.1 murine macrophages cells were stimulated with 1 μg/ml lipopolysaccharide (LPS) for 4 hours and either nigericin (NIG, 10 μM) or ATP (5 mM) was added for 1 hour. OLT1177™ was added to the cells either 30 minutes following LPS stimulation or at the same time as ATP.
A subunit of activated caspase-1 (p10) was reduced in J774A.1 cells in the presence of dapansutrile (OLT).

[2] = tested on: male CD-1 mice, experimental AMI; experiment: Experimental mouse AMI model (30 min ischemia, 24 h reperfusion), dose response and delayed dosing, Example 9; type: in vivo; details: for Infarct size, Change (%) relative to saline group / Infarct size, mean: 24 h; for AWDT, mean / AWST, mean / LVEDD, mean / LVEF, mean / LVESD, mean / LVFS, mean / PWDT, mean / PWST, mean: echo at 24 h
Experimental: Objectives: To determine the efficacy of, (1) a single dose of OLT1177™ (6, 60 and 600 mg/kg) administered at the time of reperfusion (Part A) and, (2) a single dose of 60 mg/kg OLT1177™ administered 60, 120 or 180 minutes after reperfusion in an experimental mouse AMI model.
Methodology: Male CD-1 mice underwent transient surgical ligation of the left coronary artery for 30 minutes followed by reperfusion for 24 hours. A single dose of OLT1177™ (6, 60, or 600 mg/kg) or matching vehicle was administered intraperitoneally (IP) at time of reperfusion (N=5-9/group, Study Part A) or OLT1177™ (60 mg/kg) after a 60-, 120- or 180-minute delay (N=4-7/group, Study Part B). Echocardiography was performed to measure left ventricular (LV) fractional shortening (FS). Infarct size was measured at pathology by triphenyl-tetrazolium-chloride (TTC) and phthalo blue staining and expressed as a percentage of the myocardium at risk.
For the 60-mg/kg dose, OLT1177™ (13 mg/vial) was diluted in 0.65 ml of 0.9% of normal saline solution to reach a concentration of 20 mg/ml. For the 6 mg/kg dose, the 20 mg/ml dose was diluted 10 times (0.1 ml OLT1177™ […]+0.9 ml 0.9% normal saline) to reach a final concentration of 2 mg/ml. For the 600 mg/kg dose, each vial of OLT1177™ (13 mg/vial) was diluted with 0.1 ml of saline, to reach a final concentration of 130 mg/ml. The content of multiple vials was combined. Each respective tube was subjected to a vortex and heating at 37° C. until complete dissolution of the drug substance.
Male mice were dosed with OLT1177™ by the intraperitoneal route at dose levels of 6, 60, or 600 mg/kg (each approximately 33 g mouse received 100 μl of the dosing solution; 150 μl for the higher dose) after the reperfusion was confirmed (Study Part A). In Part B, 60 mg/kg OLT1177™ was injected (100 μl of the dosing solution per mouse) with a delay of 60, 120 or 180 minutes from the time of reperfusion.
Adult out-bred male CD1 mice (8-10 weeks of age) were supplied by Envigo (Indianapolis, IN). A single operator performed all surgeries. Experimental AMI was induced by transient coronary artery ligation for 30 minutes to induce ischemia of the anterior wall and the apex (visible as pallor) followed by reperfusion, and leading to an infarct involving approximately 15% of the left ventricle. Mice were deeply sedated with sodium pentobarbital (70 mg/kg), intubated using a 23 G catheter and placed in the right lateral decubitus. The mice were shaved and the skin was cleaned with povidone solution and isopropyl alcohol. The mice were then connected to a ventilator and a left thoracotomy was performed followed by pericardiectomy and ligation of the proximal left coronary artery. A 1-mm diameter polyethylene tube was inserted inside the ligature knot, secured and left in place to obstruct the coronary flow for 30 minutes. At the end of the ischemic time, the tube was removed and the coronary flow re-establishment was observed. At this time, OLT1177™ at a dose of 6, 60 or 600 mg/kg, or the normal saline (0.9% NaCl) used as vehicle (0.1 ml of total volume) was injected into the peritoneal cavity after the reperfusion was confirmed (Part A). After closure of the thoracic access, the mice were left to recover for 24 hours. Pain management was achieved using buprenorphine (Buprenorphine SR™ Lab, 0.5 mg/kg) injected subcutaneously. For Study Part B, groups of mice were injected with 60 mg/kg of OLT1177™ after 60, 120 or 180 minutes from the moment of reperfusion.
Before sacrifice (24 hours after reperfusion), the mice underwent transthoracic echocardiography under mild anesthesia with sodium pentobarbital (50 mg/kg). Echocardiography was performed with the Vevo770 Imaging System (VisualSonics Inc, Toronto, Ontario, Canada) and a 30 MHz probe. The heart was visualized in B-mode from the parasternal short axis and apical views. The left ventricular (LV) end-diastolic diameter (LVEDD) and LV end-systolic diameters (LVESD) at M-Mode were measured. […]

[3] = 6 mg/kg IP at time of reperfusion (Group 2)
[4] = 60 mg/kg IP administered at 60 minutes (Group 5)
[5] = 60 mg/kg IP administered at 120 minutes (Group 6)
[6] = 60 mg/kg IP at time of reperfusion (Group 3)
[7] = 60 mg/kg IP, Group 7 (N = 4), head prints Administered at 120 Minutes
[8] = 60 mg/kg IP, treatment delay of 60 or 120 minutes, p<0.01
[9] = 600 mg/kg IP at time of reperfusion (Group 4)
[10] = all doses (6, 60, 600 mg/kg) at reperfusion, 24 h after reperfusion, p<0.05

For `CS(=O)(=O)CCC#N` [OLT1177™, 3-methanesulfonyl-propionitrile], the “subunit of activated caspase-1 (p10), Western blot” value [1] was “reduced”, the “Infarct size, Change (%) relative to saline group” value [2, 3] was −36% and the “AWDT, mean” value [2, 3] was 0.79 mm. The “AWST, mean” value [2, 3] was 1.10 mm, the “LVEDD, mean” value [2, 3] was 3.71 mm and the “LVEF, mean” value [2, 3] was 61.4%. For the same molecule, the “LVESD, mean” value [2, 3] was 2.52 mm, the “LVFS, mean” value [2, 3] was 32.2% and the “PWDT, mean” value [2, 3] was 0.86 mm. For the same molecule, the “PWST, mean” value [2, 3] was 1.12 mm, the “Infarct size, mean” value ([2]; 6 mg/kg IP single dose at time of reperfusion (Group 2)) was 9.9% and the “infarct size (in words)” value ([2]; 60 mg/kg IP administered 120 or 180 minutes after reperfusion) was “not significantly altered”. The “AWDT, mean” value [2, 4] was 0.85 mm, the “AWST, mean” value [2, 4] was 1.18 mm and the “LVEDD, mean” value [2, 4] was 4.00 mm. For the same molecule, the “LVEF, mean” value [2, 4] was 65.3%, the “LVESD, mean” value [2, 4] was 2.59 mm and the “LVFS, mean” value [2, 4] was 35.5%. The “PWDT, mean” value [2, 4] was 0.89 mm, the “PWST, mean” value [2, 4] was 1.33 mm and the “Infarct size, mean” value ([2]; 60 mg/kg IP administered at 60 minutes after reperfusion (Group 5)) was 4.4%. For the same molecule, the “AWDT, mean” value [2, 5] was 0.83 mm, the “AWST, mean” value [2, 5] was 1.20 mm and the “LVEDD, mean” value [2, 5] was 4.07 mm. For the same molecule, the “LVEF, mean” value [2, 5] was 63.6%, the “LVESD, mean” value [2, 5] was 2.68 mm and the “LVFS, mean” value [2, 5] was 34.1%. For the same molecule, the “PWDT, mean” value [2, 5] was 0.87 mm, the “PWST, mean” value [2, 5] was 1.26 mm and the “Infarct size, mean” value ([2]; 60 mg/kg IP administered at 120 minutes after reperfusion (Group 6)) was 11.1%. For the same molecule, the “Infarct size, mean” value ([2]; 60 mg/kg IP administered at 180 minutes after reperfusion (Group 7)) was 15.4%, the “reducing infarct size and preserving LV function, compared with treatment given with no delay” value ([2]; 60 mg/kg IP after a 60 minutes delay after reperfusion) was “equally effective” and the “Infarct size, Change (%) relative to saline group” value [2, 6] was −67%. The “AWDT, mean” value [2, 6] was 0.82 mm, the “AWST, mean” value [2, 6] was 1.25 mm and the “LVEDD, mean” value [2, 6] was 4.25 mm. The “LVEF, mean” value [2, 6] was 59.3%, the “LVESD, mean” value [2, 6] was 2.93 mm and the “LVFS, mean” value [2, 6] was 31.0%. The “PWDT, mean” value [2, 6] was 0.86 mm, the “PWST, mean” value [2, 6] was 1.24 mm and the “Infarct size, mean” value ([2]; 60 mg/kg IP single dose at time of reperfusion (Group 3)) was 5.1%. For the same molecule, the “AWDT, mean” value [2, 7] was 0.95 mm, the “AWST, mean” value [2, 7] was 1.22 mm and the “LVEDD, mean” value [2, 7] was 3.88 mm. The “LVEF, mean” value [2, 7] was 51.5%, the “LVESD, mean” value [2, 7] was 2.87 mm and the “LVFS, mean” value [2, 7] was 26.0%. The “PWDT, mean” value [2, 7] was 0.94 mm, the “PWST, mean” value [2, 7] was 1.31 mm and the “LV ejection fraction in comparison to vehicle-treated mice (in words)” value [2, 8] was “significantly improved”. For the same molecule, the “LV fractional shortening in comparison to vehicle-treated mice (in words)” value [2, 8] was “significantly improved”, the “drop in fractional shortening (in words)” value ([2]; 60 mg/kg IP, treatment delay of 180 minutes) was “failed to prevent the drop” and the “Infarct size, Change (%) relative to saline group” value [2, 9] was −61%. For the same molecule, the “AWDT, mean” value [2, 9] was 0.77 mm, the “AWST, mean” value [2, 9] was 1.06 mm and the “LVEDD, mean” value [2, 9] was 3.76 mm. The “LVEF, mean” value [2, 9] was 61.6%, the “LVESD, mean” value [2, 9] was 2.54 mm and the “LVFS, mean” value [2, 9] was 33.0%. The “PWDT, mean” value [2, 9] was 0.83 mm, the “PWST, mean” value [2, 9] was 1.14 mm and the “Infarct size, mean” value ([2]; 600 mg/kg IP single dose at time of reperfusion (Group 4)) was 6.0%. For the same molecule, the “infarct size vs vehicle (in words)” value ([2]; 6, 60 and 600 mg/kg single IP injection at time of reperfusion, p<0.001) was “significant reduction”, the “LV ejection fraction relative to vehicle control (in words)” value [2, 10] was “significantly higher” and the “LV fractional shortening relative to vehicle control (in words)” value [2, 10] was “significantly higher”. The “decrease in mean infarct size compared to the vehicle control” value ([2]; high dose 600 mg/kg IP at time of reperfusion) was “more than 60%”, the “decrease in infarct size compared to the vehicle control” value ([2]; low dose 6 mg/kg IP at time of reperfusion) was 36% and the “decrease in mean infarct size compared to the vehicle control” value ([2]; mid dose 60 mg/kg IP at time of reperfusion) was “more than 60%”.
